# Laboratory results: ChEMBL document CHEMBL3046559, “Sterile oat (Avena sterilis L.) cross-resistance profile to ACCase-inhibiting herbicides in Greece” (2012)
# Experiments:
# Type in all cases: functional
# [1] = system: Avena sterilis; experiment: Herbicidal activity against Avena sterilis accession P14 assessed as weed survival at 1 times field recommended herbicide dose
# [2] = system: Avena sterilis; experiment: Herbicidal activity against Avena sterilis accession P08 assessed as weed survival at 1 times field recommended herbicide dose
# [3] = system: Avena sterilis; experiment: Herbicidal activity against Avena sterilis accession P21S assessed as weed survival at 1/32 times field recommended herbicide dose
# [4] = system: Avena sterilis; experiment: Herbicidal activity against Avena sterilis accession P19S assessed as weed survival at 1/32 times field recommended herbicide dose
# [5] = system: Avena sterilis; experiment: Herbicidal activity against Avena sterilis accession P13S assessed as weed survival at 1/32 times field recommended herbicide dose
# [6] = system: Avena sterilis; experiment: Herbicidal activity against Avena sterilis accession P10S assessed as weed survival at 1/32 times field recommended herbicide dose
# [7] = system: Avena sterilis; experiment: Herbicidal activity against Avena sterilis accession P20 assessed as weed survival at 32 times field recommended herbicide dose
# [8] = system: Avena sterilis; experiment: Herbicidal activity against Avena sterilis accession P18 assessed as weed survival at 32 times field recommended herbicide dose
# [9] = system: Avena sterilis; experiment: Herbicidal activity against Avena sterilis accession P17 assessed as weed survival at 32 times field recommended herbicide dose
# [10] = system: Avena sterilis; experiment: Herbicidal activity against Avena sterilis accession P03 assessed as weed survival at 1 times field recommended herbicide dose
# [11] = system: Avena sterilis; experiment: Herbicidal activity against Avena sterilis accession P01 assessed as weed survival at 1 times field recommended herbicide dose
# [12] = system: Avena sterilis; experiment: Herbicidal activity against Avena sterilis accession P19S assessed as induction of weed mortality
# [13] = system: Avena sterilis; experiment: Herbicidal activity against Avena sterilis accession P22 assessed as induction of weed mortality
# [14] = system: Avena sterilis; experiment: Herbicidal activity against Avena sterilis accession P20 assessed as induction of weed mortality
# [15] = system: Avena sterilis; experiment: Herbicidal activity against Avena sterilis accession P17 assessed as induction of weed mortality
# [16] = system: Avena sterilis; experiment: Herbicidal activity against Avena sterilis accession P15 assessed as induction of weed mortality
# [17] = system: Avena sterilis; experiment: Herbicidal activity against Avena sterilis accession P08 assessed as induction of weed mortality
# [18] = system: Avena sterilis; experiment: Herbicidal activity against Avena sterilis accession P03 assessed as induction of weed mortality
# [19] = system: Avena sterilis; experiment: Herbicidal activity against Avena sterilis accession P02 assessed as induction of weed mortality
# [20] = system: Avena sterilis; experiment: Herbicidal activity against Avena sterilis accession P15 assessed as weed survival at 8 times field recommended herbicide dose
# [21] = system: Avena sterilis; experiment: Herbicidal activity against Avena sterilis accession P16 assessed as weed survival at 32 times field recommended herbicide dose
# [22] = system: Avena sterilis; experiment: Herbicidal activity against Avena sterilis accession P15 assessed as weed survival at 32 times field recommended herbicide dose
# [23] = system: Avena sterilis; experiment: Herbicidal activity against Avena sterilis accession P14 assessed as weed survival at 32 times field recommended herbicide dose
# [24] = system: Avena sterilis; experiment: Herbicidal activity against Avena sterilis accession P12 assessed as weed survival at 32 times field recommended herbicide dose
# [25] = system: Avena sterilis; experiment: Herbicidal activity against Avena sterilis accession P09 assessed as weed survival at 32 times field recommended herbicide dose
# [26] = system: Avena sterilis; experiment: Herbicidal activity against Avena sterilis accession P08 assessed as weed survival at 32 times field recommended herbicide dose
# [27] = system: Avena sterilis; experiment: Herbicidal activity against Avena sterilis accession P03 assessed as weed survival at 32 times field recommended herbicide dose
# [28] = system: Avena sterilis; experiment: Herbicidal activity against Avena sterilis accession P13S assessed as weed survival at 1/16 times field recommended herbicide dose
# [29] = system: Avena sterilis; experiment: Herbicidal activity against Avena sterilis accession P10S assessed as weed survival at 1/16 times field recommended herbicide dose
# [30] = system: Avena sterilis; experiment: Herbicidal activity against Avena sterilis accession P06S assessed as weed survival at 1/16 times field recommended herbicide dose
# [31] = system: Avena sterilis; experiment: Herbicidal activity against Avena sterilis accession P20 assessed as weed survival at 16 times field recommended herbicide dose
# [32] = system: Avena sterilis; experiment: Herbicidal activity against Avena sterilis accession P15 assessed as weed survival at 16 times field recommended herbicide dose
# [33] = system: Avena sterilis; experiment: Herbicidal activity against Avena sterilis accession P14 assessed as weed survival at 16 times field recommended herbicide dose
# [34] = system: Avena sterilis; experiment: Herbicidal activity against Avena sterilis accession P12 assessed as weed survival at 16 times field recommended herbicide dose
# [35] = system: Avena sterilis; experiment: Herbicidal activity against Avena sterilis accession P09 assessed as weed survival at 16 times field recommended herbicide dose
# [36] = system: Avena sterilis; experiment: Herbicidal activity against Avena sterilis accession P03 assessed as weed survival at 16 times field recommended herbicide dose
# [37] = system: Avena sterilis; experiment: Herbicidal activity against Avena sterilis accession P02 assessed as weed survival at 16 times field recommended herbicide dose
# [38] = system: Avena sterilis; experiment: Herbicidal activity against Avena sterilis accession P01 assessed as weed survival at 16 times field recommended herbicide dose
# [39] = system: Avena sterilis; experiment: Herbicidal activity against Avena sterilis accession P13S assessed as weed survival at 1/8 times field recommended herbicide dose
# [40] = system: Avena sterilis; experiment: Herbicidal activity against Avena sterilis accession P10S assessed as weed survival at 1/8 times field recommended herbicide dose
# [41] = system: Avena sterilis; experiment: Herbicidal activity against Avena sterilis accession P20 assessed as weed survival at 8 times field recommended herbicide dose
# [42] = system: Avena sterilis; experiment: Herbicidal activity against Avena sterilis accession P18 assessed as weed survival at 8 times field recommended herbicide dose
# [43] = system: Avena sterilis; experiment: Herbicidal activity against Avena sterilis accession P09 assessed as weed survival at 8 times field recommended herbicide dose
# [44] = system: Avena sterilis; experiment: Herbicidal activity against Avena sterilis accession P01 assessed as weed survival at 8 times field recommended herbicide dose
# [45] = system: Avena sterilis; experiment: Herbicidal activity against Avena sterilis accession P20 assessed as weed survival at 4 times field recommended herbicide dose
# [46] = system: Avena sterilis; experiment: Herbicidal activity against Avena sterilis accession P17 assessed as weed survival at 4 times field recommended herbicide dose
# [47] = system: Avena sterilis; experiment: Herbicidal activity against Avena sterilis accession P18 assessed as weed survival at 4 times field recommended herbicide dose
# [48] = system: Avena sterilis; experiment: Herbicidal activity against Avena sterilis accession P15 assessed as weed survival at 4 times field recommended herbicide dose
# [49] = system: Avena sterilis; experiment: Herbicidal activity against Avena sterilis accession P12 assessed as weed survival at 4 times field recommended herbicide dose
# [50] = system: Avena sterilis; experiment: Herbicidal activity against Avena sterilis accession P11 assessed as weed survival at 4 times field recommended herbicide dose
# [51] = system: Avena sterilis; experiment: Herbicidal activity against Avena sterilis accession P09 assessed as weed survival at 4 times field recommended herbicide dose
# [52] = system: Avena sterilis; experiment: Herbicidal activity against Avena sterilis accession P05 assessed as weed survival at 4 times field recommended herbicide dose
# [53] = system: Avena sterilis; experiment: Herbicidal activity against Avena sterilis accession P06S assessed as weed survival at 1 times field recommended herbicide dose
# [54] = system: Avena sterilis; experiment: Herbicidal activity against Avena sterilis accession P20 assessed as weed survival at 1 times field recommended herbicide dose
# [55] = system: Avena sterilis; experiment: Herbicidal activity against Avena sterilis accession P03 assessed as weed survival at 4 times field recommended herbicide dose
# [56] = system: Avena sterilis; experiment: Herbicidal activity against Avena sterilis accession P02 assessed as weed survival at 4 times field recommended herbicide dose
# [57] = system: Avena sterilis; experiment: Herbicidal activity against Avena sterilis accession P21S assessed as weed survival at 1 times field recommended herbicide dose
# [58] = system: Avena sterilis; experiment: Herbicidal activity against Avena sterilis accession P13S assessed as weed survival at 1 times field recommended herbicide dose
smiles,measurement,setting,value
CCO/N=C(\CC)C1=C(O)CC(c2c(C)cc(C)cc2C)CC1=O (stereo not drawn) [TRALKOXYDIM],Survival,[1],0%
same,Survival,[2],63%
same,Survival,[3],100%
same,Survival,[4],100%
same,Survival,[5],93%
same,Survival,[6],97%
same,Survival,[7],20%
same,Survival,[8],0%
same,Survival,[9],0%
same,Survival,[10],77%
same,Survival,[11],60%
same,GR50,[12],11 gAi/ha
same,GR50,[13],434 gAi/ha
same,GR50,[14],2916 gAi/ha
same,GR50,[15],412 gAi/ha
same,GR50,[16],735 gAi/ha
same,GR50,[17],781 gAi/ha
same,GR50,[18],1561 gAi/ha
same,GR50,[19],1073 gAi/ha
same,Survival,[20],20%
same,Survival,[21],0%
same,Survival,[22],0%
same,Survival,[23],0%
same,Survival,[24],0%
same,Survival,[25],0%
same,Survival,[26],0%
same,Survival,[27],17%
same,Survival,[28],67%
same,Survival,[29],40%
same,Survival,[30],60%
same,Survival,[31],17%
same,Survival,[32],20%
same,Survival,[33],0%
same,Survival,[34],0%
same,Survival,[35],0%
same,Survival,[36],20%
same,Survival,[37],0%
same,Survival,[38],0%
same,Survival,[39],23%
same,Survival,[40],30%
same,Survival,[41],40%
same,Survival,[42],0%
same,Survival,[43],0%
same,Survival,[44],20%
same,Survival,[45],80%
same,Survival,[46],20%
same,Survival,[47],20%
same,Survival,[48],20%
same,Survival,[49],0%
same,Survival,[50],0%
same,Survival,[51],20%
same,Survival,[52],40%
same,Survival,[53],0%
same,Survival,[54],97%
same,Survival,[55],60%
same,Survival,[56],40%
same,Survival,[57],20%
same,Survival,[58],0%
